Where “and” joins values, the source holds several entries; their conditions need not be identical. Equal values may be shown once. Read-outs that look alike come from different tables or passages of the source.
Key:
[1] = tested on: bovine viral diarrhea virus (BVDV) strain NADL; test: BVDV CPE-inhibition assay in MDBK cells; assay type: cell-based
Experimental: The antiviral evaluation of selected BIT compounds against BVDV was outsourced to Southern Research Institute (SRI), Fredrick Md. USA. A simple cytoprotection format is used in which the antiviral efficacy of the compounds is assessed by their ability to reduce the cytopathic effect of BVDV infection in Madin-Darby bovine kidney cells (Buckwold et al., 2003)
(§1) A virus-induced cytopathogenic effects (CPE)-inhibition assay procedure was employed to evaluate compounds for antiviral activity against bovine viral diarrhea virus (BVDV) strain NADL, in Madin-Darby bovine kidney (MDBK) cells passaged in T-75 flasks (1, 2). Antiviral assays were designed to test six half-log concentrations of each compound in triplicate against the challenge virus. Cell controls (CC) containing medium alone, virus-infected cell controls (VC) containing medium and virus, drug cytotoxicity controls containing medium and each drug concentration, reagent controls containing culture medium only (no cells), and drug colorimetric controls containing drug and medium (no cells) are run simultaneously with the test samples. Human interferon-α 2b was used as a positive control compound. On the day preceding the assay, the cells were trypsinized, pelleted, counted and resuspended at 1×10^4/well in tissue culture medium in 96-well flat bottom tissue culture plates in a volume of 100 μl per well. One day following plating of cells, the wells were washed and the medium was replaced with complete medium (2% serum) containing various concentrations of test compound diluted in medium in a half-log series. A pre-titered aliquot of virus was removed from the freezer (−80° C.) just before each experiment. The virus was diluted into tissue culture medium such that the amount of virus added to each well would give complete cell killing at 6-7 days post-infection. The plates were incubated at 37° C. in a humidified atmosphere containing 5% CO2 until maximum CPE is observed in the untreated virus control cultures (˜day 7) Inhibition of CPE by the compound was determined using Cell Titer 96 (Promega). A colorimetric method for determining the number of viable cells was used. A computer program was utilized to calculate the percent of CPE reduction of the virus-infected wells and the percentage cell viability of uninfected drug control wells. […] A therapeutic (selectivity) index (TI50) for each active compound was determined by dividing the TC50 by the IC50.
(§2) Drug cytotoxicity was measured separately in uninfected cells. Eleven BIT compounds were tested in the first experiment in which the compounds were added to the cells just prior to infection and were maintained throughout the entire experiment. Two of them, BIT225 and BIT314 returned sub-micromolar IC50 values (see Table 2 below).

[2] = biological target: T1, HCV p7 ion channel protein (Hepatitis C virus genotype 1a, UniProt P27958); test: Bacterial bioassay: growth of E. coli expressing HCV p7; assay type: cell-based; parameters: scale not given here; settings: cumulative averaged scores; result above zero indicates potential anti-viral activity
T1 construct: codons were optimised for expression of the p7 protein in E. coli; expressed in transfected cells; host or cells: E. coli carrying plasmid pPLp7 (pPL451 backbone, temperature-inducible)
From the text: The bacterial bioassay method used in the present example to test the anti-viral activity of the compounds against different viral targets was described in detail in PCT/2004/000866, incorporated in its entirety herein by reference. This assay is used in conjunction with the GBV-B and BVDV assays described below, to ensure that all active compounds are identified, some of which are active in one or the other of the assays, while some compounds may be active in both assays.
Briefly, the bacterial bio-assay for screening potential anti-HCV compounds is based on the HCV p7 ion channel protein. p7 is a small membrane protein encoded by HCV, which has a functional activity supporting viral growth and/or replication.
The p7-encoding synthetic cDNA fragment cDp7.coli, in which codons were optimised for expression of the p7 protein in E. coli, was cloned into the expression plasmid pPL451, creating the vector pPLp7, in which p7 expression is temperature inducible, as described in detail in PCT/2004/000866. Inhibition of the growth of E. coli cells expressing p7 at 37° C. was observed as an indicator of p7 ion channel function dissipating the normal Na+gradient maintained by the bacterial cells. Halos of growth around a particular compound application site indicate that the compound has inhibited expression of the p7 ion channel activity that prevents growth in the absence of the compound.
The positive controls were used in this assay to ensure that the assay was working rather than for comparison of relative activities of the compounds.

[3] = tested on: Madin-Darby bovine kidney (MDBK) cells; test: Drug cytotoxicity in uninfected MDBK cells; assay type: cell-based; settings: for TC50: uninfected MDBK cells
From the text: as §1, §2

GBV-B p13 ion channel = biological target: T2, GBV-B p13 ion channel (Hepatitis GB virus B, UniProt Q69422); settings: synthetic peptide of two C-terminal transmembrane helices of p13; Premkumar et al., 2006; cited from earlier work
T2 construct: a synthetic peptide corresponding to the two C-terminal transmembrane helices of p13 (which share the greatest homology to p7); host or cells: chemically synthesised peptide

[4] = Bovine viral diarrhea virus isolates and strains, MDBK, nucleoside analog tested individually against BVDV, read-out: EC50
[5] = BVDV in MDBK cells, compound added just prior to infection and maintained, N/A = not achieved, read-out: IC50
[6] = Bovine viral diarrhea virus isolates and strains, MDBK, Table 2a, read-out: BVDV IC50

T1 sequence (P27958 747-809): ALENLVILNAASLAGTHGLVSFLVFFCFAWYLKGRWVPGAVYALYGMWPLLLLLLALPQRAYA
T2 sequence (Q69422 670-732): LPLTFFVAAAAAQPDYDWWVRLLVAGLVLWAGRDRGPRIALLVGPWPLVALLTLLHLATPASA

Row | Compound | Average Bacterial Assay Score HCV p7 [2] | IC50 [1, 6] | further results
1 | C[C@@]1(O)[C@H](O)[C@@H](CO)O[C@H]1n1cnc2c(N)ncnc21 [2′-C-methyladenosine, reference compound] | – | – | EC50 [1, 4]: 2.16 µM
2 | C[C@@]1(O)[C@H](O)[C@@H](CO)O[C@H]1n1ccc(N)nc1=O [2′-C-methylcytidine, reference compound] | – | – | EC50 [1, 4]: 2.75 µM
3 | N=C(N)NC(=O)C=Cc1cccc(Br)c1 [BIT067, (3-Bromocinnamoyl)guanidine] | 2.00 | – | –
4 | N=C(N)NC(=O)C=Cc1cc(Br)ccc1F [BIT124, 5-bromo-2-fluorocinnamoylguanidine] | 2.70 | – | TC59 [3]: 5.21 µM
5 | N=C(N)NC(=O)/C=C/c1cccc(C(=O)c2ccccc2)c1 [BIT216, (3-benzoyl)cinnamoylguanidine] | 1.3 | – | –
6 | N=C(N)NC(=O)/C=C/c1cccc2c1OCO2 [BIT217, 2,3-methylenedioxycinnamoyl guanidine] | 1.0 | – | –
7 | Cc1cccc2cc(C(=O)NC(=N)N)ccc12 [BIT218, 5-methyl-2-napthoylguanidine] | 1.7 | – | –
8 | N=C(N)NC(=O)/C=C/c1cccc2c1CCC2 [BIT222, 3(indan-4-yl)-propenoylguanidine] | 2.0 | – | –
9 | COc1ccc2cc(C(=O)NC(=N)N)ccc2c1Br [BIT223, 5-bromo-6-methoxy-2-napthoylguanidine] | 0.5 | – | IC50 [1, 5]: 4380 nM; TC50 [3]: >30.0 µM
10 | N=C(N)NC(=O)c1ccc2c(-c3ccsc3)cccc2c1 [BIT224, 5-thiophen-3-yl-2-naphthoylguanidine] | 1.10 | – | –
11 | N=C(N)NC(=O)C=Cc1ccc(Cl)c(Cl)c1 [BIT300, 3,4-dichlorocinnamoyl guanidine] | 1.12 | – | TC59 [3]: 3.69 µM
12 | COc1c(C(=O)NC(=N)N)ccc2ccccc12 [BIT301, (1-methoxy-2-napthoyl)guanidine] | 0.25 | > 20000 nM | –
13 | COc1cc2ccccc2cc1C(=O)NC(=N)N [BIT302, (3-methoxy-2-napthoyl)guanidine] | 0.76 | 7210 nM | –
14 | N=C(N)NC(=O)c1ccc2c(Br)cccc2c1 [BIT303, (5-bromo-2-napthoyl)guanidine] | 0.62 | 13600 nM | –
15 | COc1cc(C(=O)NC(=N)N)c(OC)c2ccccc12 [BIT304, (1,4-dimethoxy--2-napthoyl)guanidine] | 0.60 | > 20000 nM | –
16 | N=C(N)NC(=O)c1ccc2cc(-c3ccsc3)ccc2c1 [BIT305, (6-(3-thienyl)-2-napthoyl)guanidine] | 0.08 | > 20000 nM | –

Row | Compound | Average Bacterial Assay Score HCV p7 [2] | IC50 [1, 6] | further results
17 | Cc1ccc2cc(C(=O)NC(=N)N)ccc2c1 [BIT306, (6-methyl-2-napthoyl)guanidine] | 0.07 | 14500 nM | –
18 | N=C(N)NC(=O)c1ccc2c(-c3ccccc3)cccc2c1 [BIT307, (5-phenyl-2-napthoyl)guanidine] | 0.46 | 1990 nM | –
19 | N=C(N)NC(=O)c1ccc2c(-c3cccs3)cccc2c1 [BIT308, (5-(thien-2-yl)-2-napthoyl)guanidine] | 0.55 | 8730 nM | –
20 | CC(C)Cn1cc(-c2cccc3cc(C(=O)NC(=N)N)ccc23)cn1 [BIT310, (5-(1-isobutyl-1H-pyrazol-4-yl)-2-napthoyl)guanidine] | 0.36 | > 20000 nM | –
21 | N=C(N)NC(=O)c1ccc2c(-c3ccoc3)cccc2c1 [BIT311, (5-(3-furyl)-2-napthoyl)guanidine] | 0.81 | 2960 nM | –
22 | N=C(N)NC(=O)c1ccc2c(C3CC3)cccc2c1 [BIT312, (5-cyclopropyl-2-napthoyl)guanidine] | 1.00 | 8630 nM | –
23 | N=C(N)NC(=O)c1ccc2c(Cl)cccc2c1 [BIT313, (5-chloro-2-napthoyl)guanidine] | 1.30 | 9640 nM | –
24 | CC(=O)O.Cn1cc(-c2ccc3cc(C(=O)NC(=N)N)ccc3c2)cn1 [BIT314, (6-(1-methylpryazol-4-yl)-2-napthoyl)guanidinium acetate] | 4.03 | 390 nM | IC50 [1, 5]: 210 nM; EC50 ([1]; Bovine viral diarrhea virus isolates and strains, MDBK, drug alone, average of experiments, read-out: average EC50): 0.3 µM; EC50 ([1]; Bovine viral diarrhea virus isolates and strains, MDBK, in the presence of 5 IU/ml IFNα plus 1.25 μg/ml ribavirin, read-out: EC50): 0.183 µM; EC50 ([1]; Bovine viral diarrhea virus isolates and strains, MDBK, in the presence of 40 IU/ml IFNα, read-out: EC50): ~0.06 µM; EC50 ([1]; drug alone, average of experiments, read-out: average EC50): 0.38 µM; EC50 ([1]; drug tested individually against BVDV, read-out: EC50): 0.21 µM and 0.39 µM and 0.54 µM; IC50 values (in words) ([1]; first experiment, Table 2): sub-micromolar; TC50 [3]: 11.6 µM
25 | COc1ccc(-c2cccc3cc(C(=O)NC(=N)N)ccc23)c(OC)n1 [BIT315, (5-(2,6-dimethoxypryridin-3-yl)-2-napthoyl)guanidine] | 0.20 | > 20000 nM | –
26 | N=C(N)NC(=O)c1ccc2c(-c3ccccc3Cl)cccc2c1 [BIT316, (5-(2-chlorophenyl)-2-napthoyl)guanidine] | 0.37 | > 20000 nM | –
27 | CC(=O)Nc1ccc(-c2cccc3cc(C(=O)NC(=N)N)ccc23)cc1 [BIT317, (5-(4-(acetylamino)phenyl)-2-napthoyl)guanidine] | 0.06 | 6020 nM | –
28 | CC(=O)Nc1cccc(-c2cccc3cc(C(=O)NC(=N)N)ccc23)c1 [BIT318, (5-(3-(acetylamino)phenyl)-2-napthoyl)guanidine] | 0.73 | > 20000 nM | –
29 | CS(=O)(=O)Nc1ccc(-c2cccc3cc(C(=O)NC(=N)N)ccc23)cc1 [BIT319, (5-(4-((methylsulphonyl)amino)phenyl)-2-napthoyl)guanidine] | 0.10 | > 20000 nM | –
30 | NC(N)=NC(=O)c1nc(Cl)c(N2CCCCCC2)nc1N [HMA] | – | – | effect on p13 ion channel (GBV-B p13 ion channel): does not inhibit
31 | NC12CC3CC(CC(C3)C1)C2 [amantadine] | – | – | effect on p13 ion channel (GBV-B p13 ion channel): blocked
32 | IFN-α | – | – | inhibition ([1]; 5 IU/ml IFNα alone): ~8%; IC50 ([1]; BVDV in MDBK cells, positive control): 20.6 IU/mL; EC50 ([1]; drug tested individually against BVDV): 21.7 IU/ml; TC59 [3]: >500 IU/mL
